Read-outs that look alike come from different tables or passages of the source.
What was measured:
[1] = target: T1, Full-length (FL)-PRMT5-MEP50 enzyme complex (Homo sapiens, UniProt O14744); experiment: PRMT5-MEP50 Enzyme Methylation Assay (Version A); format: biochemical
T1 construct: Full-length (FL)-PRMT5-MEP50 enzyme complex (recombinant proteins from baculovirus-transfected Sf21 cells: FL-PRMT5; MW=73837 kDa and FL-MEP50; MW=38614); made in house; host or cells: baculovirus-transfected Sf21 cells
Method in brief: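 Compound was pre-incubated with enzyme for 60 min, then reacted 150 min at 37° C. at final 1.0 nM PRMT5-MEP50, 15 μM SAM and 75 nM biotinylated H4R3(Me1) peptide, in 50 mM Bicine pH 8.0 with 1% DMSO. SAMDI mass-spectrometric readout of Me1→Me2 conversion. EC50 from 4- or 7-parameter regression.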

[2] = test system: symmetric dimethylation of arginine (SDMA) of PRMT5 substrates in MCF-7 cells; experiment: PRMT5 Cell Target Engagement (TE) Assay; format: cell-based; conditions: Homo sapiens, MCF7, 72 h, 3 days treatment, SDMA high content imaging
Method in brief: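 Readout is single-cell nuclear symmetric-dimethylarginine immunofluorescence (Alexa488), normalized to DMSO-treated cells. Compounds were applied to MCF-7 cells for 3 days at 37 °C, top concentration 10000 nM in 1:3 steps over ten points; curves fitted with 4-parameter robust fit.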

[3] = second value of 7 parameter biphasic fit, read-out: Enzyme Methylation Assay Version A (EC50 2)
[4] = single EC50 = 4 parameter single site sigmoidal fit, EC50 1 = first value of 7 parameter biphasic fit, read-out: Enzyme Methylation Assay Version A (EC50 or EC50 1)

T1 sequence (O14744 whole entry): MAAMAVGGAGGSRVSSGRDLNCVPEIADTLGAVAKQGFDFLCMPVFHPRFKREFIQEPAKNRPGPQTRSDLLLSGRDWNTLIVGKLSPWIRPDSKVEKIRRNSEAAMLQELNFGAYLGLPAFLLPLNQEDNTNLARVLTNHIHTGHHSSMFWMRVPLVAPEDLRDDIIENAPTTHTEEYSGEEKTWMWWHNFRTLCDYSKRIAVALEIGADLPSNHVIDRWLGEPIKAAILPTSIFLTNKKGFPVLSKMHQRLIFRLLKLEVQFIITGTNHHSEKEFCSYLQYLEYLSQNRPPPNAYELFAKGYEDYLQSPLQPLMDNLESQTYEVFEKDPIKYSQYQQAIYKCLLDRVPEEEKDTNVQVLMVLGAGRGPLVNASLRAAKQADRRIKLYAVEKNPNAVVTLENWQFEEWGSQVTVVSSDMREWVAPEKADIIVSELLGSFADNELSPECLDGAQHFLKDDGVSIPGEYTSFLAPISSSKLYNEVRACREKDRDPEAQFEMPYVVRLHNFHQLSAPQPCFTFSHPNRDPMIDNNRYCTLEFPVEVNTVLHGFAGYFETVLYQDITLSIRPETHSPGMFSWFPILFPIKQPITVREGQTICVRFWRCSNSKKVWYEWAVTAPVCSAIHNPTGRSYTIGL
T1 sequence (Q9BQA1 whole entry partner): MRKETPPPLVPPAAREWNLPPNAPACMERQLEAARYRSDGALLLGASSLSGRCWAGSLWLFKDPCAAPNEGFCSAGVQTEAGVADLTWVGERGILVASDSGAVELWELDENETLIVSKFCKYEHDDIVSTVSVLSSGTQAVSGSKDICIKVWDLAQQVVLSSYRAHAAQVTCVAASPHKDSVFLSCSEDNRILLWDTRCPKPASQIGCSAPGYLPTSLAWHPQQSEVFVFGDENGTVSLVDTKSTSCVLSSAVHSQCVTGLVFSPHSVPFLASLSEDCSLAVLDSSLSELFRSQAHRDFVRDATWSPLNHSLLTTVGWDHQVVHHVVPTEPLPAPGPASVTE

Structure (SMILES): O=C(c1cn2cc(C(F)(F)F)cc(CO)c2n1)N1CC[C@]2(Cc3ccccc3CN2)[C@H](O)C1 [Example 29, ((3R,3’R)-3′-hydroxy-1,4-dihydro-1′H,2H-spiro[isoquinoline-3,4′-piperidin]-1′-yl)[8-(hydroxymethyl)-6-(trifluoromethyl)imidazo[1,2-a]pyridin-2-yl]methanone]
- EC50 [1, 3]: 653 nM
- EC50 [1, 4]: 0.428 nM
- EC50 [2]: 18.4 nM

Structure (SMILES): N#CCCc1cc(C(F)(F)F)cn2cc(C(=O)N3CC[C@]4(Cc5ccccc5CN4)[C@H](O)C3)nc12 [Example 34, 3-(2-((3R,3’R)-3′-hydroxy-1,4-dihydro-2H-spiro[isoquinoline-3,4′-piperidine]-1′-carbonyl)-6-(trifluoromethyl)imidazo[1,2-a]pyridin-8-yl)propanenitrile]
- EC50 [1, 3]: 229 nM
- EC50 [1, 4]: 0.909 nM
- EC50 [2]: 4 nM

Structure (SMILES): Cc1cc(C(F)(F)F)cn2cc(C(=O)N3CC[C@]4(Cc5ccccc5CN4)[C@H](O)C3)nc12 [Example 35, ((3R,3’R)-3′-hydroxy-1,4-dihydro-2H-spiro[isoquinoline-3,4′-piperidin]-1′-yl)(8-methyl-6-(trifluoromethyl)imidazo[1,2-a]pyridin-2-yl)methanone]
- EC50 [1, 3]: 248 nM
- EC50 [1, 4]: 0.766 nM
- EC50 [2]: 5.66 nM

Structure (SMILES): N#Cc1ccc2nc(C(=O)N3CC[C@]4(Cc5ccccc5CN4)[C@H](O)C3)cn2c1 [Example 36, 2-((3R,3’R)-3′-hydroxy-1,4-dihydro-2H-spiro[isoquinoline-3,4′-piperidine]-1′-carbonyl)imidazo[1,2-a]pyridine-6-carbonitrile]
- EC50 [1, 3]: 2820 nM
- EC50 [1, 4]: 6.26 nM
- EC50 [2]: 13.2 nM

Structure (SMILES): O=C(c1cn2cc(Cl)ccc2n1)N1CC[C@]2(Cc3ccccc3CN2)[C@H](O)C1 [Example 37, (6-chloroimidazo[1,2-a]pyridin-2-yl)((3R,3’R)-3′-hydroxy-1,4-dihydro-2H-spiro[isoquinoline-3,4′-piperidin]-1′-yl)methanone]
- EC50 [1, 3]: 251 nM
- EC50 [1, 4]: 0.757 nM
- EC50 [2]: 1.61 nM

Structure (SMILES): O=C(c1cn2cc(F)ccc2n1)N1CC[C@]2(Cc3ccccc3CN2)[C@H](O)C1 [Example 38, (6-fluoroimidazo[1,2-a]pyridin-2-yl)((3R,3’R)-3′-hydroxy-1,4-dihydro-2H-spiro[isoquinoline-3,4′-piperidin]-1′-yl)methanone]
- EC50 [1, 3]: 2460 nM
- EC50 [1, 4]: 3.84 nM
- EC50 [2]: 16.2 nM

Structure (SMILES): O=C(c1cn2cc(O)ccc2n1)N1CC[C@]2(Cc3ccccc3CN2)[C@H](O)C1 [Example 39, ((3R,3’R)-3′-hydroxy-1,4-dihydro-2H-spiro[isoquinoline-3,4′-piperidin]-1′-yl)(6-hydroxyimidazo[1,2-a]pyridin-2-yl)methanone]
- EC50 [1, 3]: 29200 nM
- EC50 [1, 4]: 95.5 nM
- EC50 [2]: 571 nM

Structure (SMILES): Cc1ccc2nc(C(=O)N3CC[C@]4(Cc5ccccc5CN4)[C@H](O)C3)cn2c1 [Example 40, ((3R,3’R)-3′-hydroxy-1,4-dihydro-2H-spiro[isoquinoline-3,4′-piperidin]-1′-yl)(6-methylimidazo[2,2-a]pyridin-2-yl)methanone]
- EC50 [1, 3]: 468 nM
- EC50 [1, 4]: 0.814 nM
- EC50 [2]: 8.7 nM

Structure (SMILES): O=C(c1cn2cc(C(F)F)ccc2n1)N1CC[C@]2(Cc3ccccc3CN2)[C@H](O)C1 [Example 41, (6-(difluoromethyl)imidazo[1,2-a]pyridin-2-yl)((3R,3’R)-3′-hydroxy-1,4-dihydro-2H-spiro[isoquinoline-3,4′-piperidin]-1′-yl)methanone]
- EC50 [1, 3]: 209 nM
- EC50 [1, 4]: 0.513 nM
- EC50 [2]: 2.44 nM

Structure (SMILES): O=C(c1cn2cc(Br)ncc2n1)N1CC[C@]2(Cc3ccccc3CN2)[C@H](O)C1 [Example 42, (6-bromoimidazo[1,2-a]pyrazin-2-yl)((3R,3’R)-3′-hydroxy-1,4-dihydro-2H-spiro[isoquinoline-3,4′-piperidin]-1′-yl)methanone]
- EC50 [1, 3]: 3240 nM
- EC50 [1, 4]: 5.35 nM
- EC50 [2]: 24.9 nM

Structure (SMILES): COc1ccc2nc(C(=O)N3CC[C@]4(Cc5ccccc5CN4)[C@H](O)C3)cn2c1 [Example 43, ((3R,3’R)-3′-hydroxy-1,4-dihydro-2H-spiro[isoquinoline-3,4′-piperidin]-1′-yl)(6-methoxyimidazo[1,2-a]pyridin-2-yl)methanone]
- EC50 [1, 3]: 1440 nM
- EC50 [1, 4]: 3.22 nM
- EC50 [2]: 19.1 nM

Structure (SMILES): Cc1cc(Br)cn2cc(C(=O)N3CC[C@]4(Cc5ccccc5CN4)[C@H](O)C3)nc12 [Example 44, (6-bromo-8-methylimidazo[1,2-a]pyridin-2-yl)((3R,3’R)-3′-hydroxy-1,4-dihydro-2H-spiro[isoquinoline-3,4′-piperidin]-1′-yl)methanone]
- EC50 [1, 3]: 42.1 nM
- EC50 [1, 4]: 0.687 nM
- EC50 [2]: 1.32 nM

Structure (SMILES): O=C(c1ccn(CC(F)(F)F)c(=O)c1)N1CC[C@]2(Cc3ccccc3CN2)[C@H](O)C1 [Example 45, 4-((3R,3′R)-3′-hydroxy-1,4-dihydro-2H-spiro[isoquinoline-3,4′-piperidine]-1′-carbonyl)-1-(2,2,2-trifluoroethyl)pyridin-2(1H)-one]
- EC50 [1, 3]: 16000 nM
- EC50 [1, 4]: 70 nM
- EC50 [2]: 224 nM

Structure (SMILES): CC(C)(O)c1cc(Br)cn2cc(C(=O)N3CC[C@]4(Cc5ccccc5CN4)[C@H](O)C3)nc12 [Example 47, (6-bromo-8-(2-hydroxypropan-2-yl)imidazo[1,2-a]pyridin-2-yl)((3R,3’R)-3′-hydroxy-1,4-dihydro-2H-spiro[isoquinoline-3,4′-piperidin]-1′-yl)methanone]
- EC50 [1, 3]: 403 nM
- EC50 [1, 4]: 0.421 nM
- EC50 [2]: 9.81 nM

Structure (SMILES): CC(C)(O)c1cc(Br)cn2cc(C(=O)N3CCC4(Cc5ccccc5CN4)C(O)C3)nc12 (stereo not drawn) [Example 48, A diastereomer of [6-bromo-8-(2-hydroxy-2-propanyl)imidazo[1,2-a]pyridin-2-yl](3′-hydroxy-1,4-dihydro-1′H,2H-spiro[isoquinoline-3,4′-piperidin]-1′-yl)methanone]
- EC50 [1, 3]: 2980 nM
- EC50 [1, 4]: 4.91 nM
- EC50 [2]: 246 nM

Structure (SMILES): Cc1cc(Br)c2nc(C(=O)N3CC[C@]4(Cc5ccccc5CN4)[C@H](O)C3)cn2c1 [Example 49, (8-bromo-6-methylimidazo[1,2-a]pyridin-2-yl)((3R,3’R)-3′-hydroxy-1,4-dihydro-2H-spiro[isoquinoline-3,4′-piperidin]-1′-yl)methanone]
- EC50 [1, 3]: 347 nM
- EC50 [1, 4]: 1.15 nM
- EC50 [2]: 3.88 nM

Structure (SMILES): COc1cc(Br)cn2cc(C(=O)N3CC[C@]4(Cc5ccccc5CN4)[C@H](O)C3)nc12 [Example 50, (6-bromo-8-methoxyimidazo[1,2-a]pyridin-2-yl)((3R,3’R)-3′-hydroxy-1,4-dihydro-2H-spiro[isoquinoline-3,4′-piperidin]-1′-yl)methanone]
- EC50 [1, 3]: 62.4 nM
- EC50 [1, 4]: 0.38 nM
- EC50 [2]: 1.48 nM

Structure (SMILES): CNC(=O)c1cc(Br)cn2cc(C(=O)N3CC[C@]4(Cc5ccccc5CN4)[C@H](O)C3)nc12 [Example 51, 6-bromo-2-((3R,3’R)-3′-hydroxy-1,4-dihydro-2H-spiro[isoquinoline-3,4′-piperidine]-1′-carbonyl)-N-methylimidazo[1,2-a]pyridine-8-carboxamide]
- EC50 [1, 3]: 1500 nM
- EC50 [1, 4]: 7.02 nM
- EC50 [2]: 13.7 nM

Structure (SMILES): O=C(c1cn2c(n1)CCC(C(F)(F)F)C2)N1CC[C@]2(Cc3ccccc3CN2)[C@H](O)C1 (stereo partly drawn) [Example 54, [(3R,3′R)-3′-hydroxy-1,4-dihydro-1′H,2H-spiro[isoquinoline-3,4′-piperidin]-1′-yl][6-(trifluoromethyl)-5,6,7,8-tetrahydroimidazo[1,2-a]pyridin-2-yl]methanone]
- EC50 [1, 3]: 2660 nM
- EC50 [1, 4]: 8.01 nM
- EC50 [2]: 169 nM

Structure (SMILES): O=C(c1cn2cc(Br)cc(C(F)(F)F)c2n1)N1CC[C@]2(Cc3ccccc3CN2)[C@H](O)C1 [Example 55, [6-bromo-8-(trifluoromethyl)imidazo[1,2-a]pyridin-2-yl][(3R,3′R)-3′-hydroxy-1,4-dihydro-1′H,2H-spiro[isoquinoline-3,4′-piperidin]-1′-yl]methanone]
- EC50 [1, 3]: 170 nM
- EC50 [1, 4]: 0.817 nM
- EC50 [2]: 1.17 nM

Structure (SMILES): O=C(c1cnc2ncc(Cl)cn12)N1CC[C@]2(Cc3ccccc3CN2)[C@H](O)C1 [Example 56, (6-chloroimidazo[1,2-a]pyrimidin-3-yl)[(3R,3′R)-3′-hydroxy-1,4-dihydro-1′H,2H-spiro[isoquinoline-3,4′-piperidin]-1′-yl]methanone]
- EC50 [1, 3]: 10000 nM
- EC50 [1, 4]: 12.4 nM
- EC50 [2]: 82.1 nM

Structure (SMILES): O=C(c1ccn2c(Br)cnc2n1)N1CC[C@]2(Cc3ccccc3CN2)[C@H](O)C1 [Example 57, (3-bromoimidazo[1,2-a]pyrimidin-7-yl)[(3R,3′R)-3′-hydroxy-1,4-dihydro-1′H,2H-spiro[isoquinoline-3,4′-piperidin]-1′-yl]methanone]
- EC50 [1, 3]: 55000 nM
- EC50 [1, 4]: 63.1 nM
- EC50 [2]: 2190 nM

Structure (SMILES): O=C(c1nn2cc(Br)cnc2c1Cl)N1CC[C@]2(Cc3ccccc3CN2)[C@H](O)C1 [Example 58, (6-bromo-3-chloropyrazolo[1,5-a]pyrimidin-2-yl)[(3R,3′R)-3′-hydroxy-1,4-dihydro-1′H,2H-spiro[isoquinoline-3,4′-piperidin]-1′-yl]methanone]
- EC50 [1, 3]: 313 nM
- EC50 [1, 4]: 0.715 nM
- EC50 [2]: 10.1 nM

Structure (SMILES): CN1CCn2cc(C(=O)N3CC[C@]4(Cc5ccccc5CN4)[C@H](O)C3)nc2C1 [Example 59, [(3R,3′R)-3′-hydroxy-1,4-dihydro-1′H,2H-spiro[isoquinoline-3,4′-piperidin]-1′-yl](7-methyl-5,6,7,8-tetrahydroimidazo[1,2-a]pyrazin-2-yl)methanone]
- EC50 [1, 4]: 20.2 nM
- EC50 [2]: 6100 nM

— US12441730B2, “PRMT5 inhibitors” (Merck Sharp & Dohme LLC, priority 2019, dated 2025)
